According to patent US20100273200A1, “In-Vitro Model of Blood-Brain Barrier, In-Vitro Model of Diseased Blood-Brain Barrier, and Drug Screening Method, Analysis Method for Functions of Diseased Blood-Brain Barrier, and Analysis Method for Pathogenesis Using the Same” (priority 2005, published 2010):

System: ischemia-reperfusion BBB model
Experiment: Effects of radical scavenger edaravone on ischemia-reperfusion BBB model (TEER and Na—F permeability)
Assay type: cell-based, rat
Conditions: edaravone added at the end of the 6 h ischemia period; 3 h reperfusion; FIG. 10
Protocol: TEER was measured with ENDOHM (manufactured by WPI). Then, the experiment on Na—F permeability was conducted.
1/PSapper=1/PSmembrane+1/PStrans.
FIG. 4 is a graph showing variation per day of transendothelial electrical resistance value measurement results of 7 coculture models prepared by the method shown in Example 4. FIG. 5 is a graph comparing transendothelial electrical resistance value measurement results among 7 coculture models prepared by the method shown in Example 4. Transendothelial Electrical Resistance (TEER) was measured with ENDOHM (manufactured by WPI). The electrical resistance value of each BBB model was measured from 2 to 7 days after model preparation. The TEER values of E00, E0A, and E0P were calculated by subtracting therefrom the electrical resistance value of only the membrane. The TEER values of EA0 ad EAP were calculated by subtracting therefrom the electrical resistance value of the membrane on which only the astrocytes were cultured. The TEER values of EP0 ad EPA were calculated by subtracting therefrom the electrical resistance value of the membrane on which only the pericytes were cultured. […]

In the case of `CC1=NN(c2ccccc2)C(=O)C1` [edaravone], the “reduction in TEER attributed to ischemia-reperfusion (reduction in tight junction function)” value is reported as “significantly suppressed” and the “rise in Na—F permeability attributed to ischemia-reperfusion (reduction in tight junction function)” value is reported as “significantly suppressed”.
